Key:
[1] = biological target: muscarinic receptors (3H-oxotremorine-M binding); assay: 3H-oxotremorine-M binding study; settings: radioligand 3H-oxotremorine-M; read-out: inhibition constant (Ki) for binding of 3H-oxotremorine-M
[2] = system: m4 receptors (CHO m4 cells); assay: cAMP formation in CHO m4 cells treated with pertussis toxin; format: cell-based
Text: Muscarinic agonists stimulate the formation of CAMP up to 10 fold in CHO m4 cells treated with pertussisi toxin and the pharmacology is consistent with the mediation by m4 receptors. Eckols K. Soc. Neurosci Abstr., 21:2040 (1995).

CCCCCCOc1nsnc1C1=CCCN(C)C1 [xanomeline, 3-(4-hexyloxy-1,2,5-thiadiazol-3-yl)-1,2,5,6-tetrahydro-1-methylpyridine]
Ki [1]: 2 nM | stimulation of formation of cAMP [2]: efficaciously and potently stimulated the formation of cAMP

Source: US6117890A, “Method for treating bipolar disorder” (Eli Lilly and Company, priority 1998, dated 2000)
